Values of other authors in US20180191016A1, “FLOW BATTERIES INC[…] PHE[…] WITHIN AN AQUEOUS ELECTROLYTE SOLUTION” (LOCKHEED MARTIN ADVANCED ENERGY STORAGE, LLC, priority 2017, published 2018).

Conditions: compared to a reversible hydrogen electrode

For c1ccc2c(c1)Nc1ccccc1S2 [phenothiazine], the standard reduction potential is given as “approximately +0.9 V”.
